We go through 17 compounds from ChEMBL document CHEMBL1154733, “Synthesis and in vitro opioid receptor functional antagonism of methyl-substituted analogues of (3R)-7-hydroxy-N-[(1S)-1-{[(3R,4R)-4-(3-hydroxyphenyl)-3,4-dimethyl-1-piperidinyl]methyl}-2-methylpropyl]-1,2,3,4-tetrahydro-3-isoquinolinecarboxamide (JDTic)” (J Med Chem, 2009).

For test [1], the species on record is Homo sapiens. Description: Ratio of Ke for human cloned delta opioid receptor to Ke for human cloned kappa opioid receptor.
For test [2], the target named is Kappa-type opioid receptor (Homo sapiens) (UniProt P41145). Description: Antagonist activity at human cloned kappa opioid receptor expressed in CHO cells assessed as inhibition of U69593-stimulated [35S]GTPgammaS binding. It is filed as functional, cell-based. (GTPγS resists hydrolysis and so accumulates on activated G proteins.)
Chain of Kappa-type opioid receptor (Homo sapiens) (P41145 whole entry): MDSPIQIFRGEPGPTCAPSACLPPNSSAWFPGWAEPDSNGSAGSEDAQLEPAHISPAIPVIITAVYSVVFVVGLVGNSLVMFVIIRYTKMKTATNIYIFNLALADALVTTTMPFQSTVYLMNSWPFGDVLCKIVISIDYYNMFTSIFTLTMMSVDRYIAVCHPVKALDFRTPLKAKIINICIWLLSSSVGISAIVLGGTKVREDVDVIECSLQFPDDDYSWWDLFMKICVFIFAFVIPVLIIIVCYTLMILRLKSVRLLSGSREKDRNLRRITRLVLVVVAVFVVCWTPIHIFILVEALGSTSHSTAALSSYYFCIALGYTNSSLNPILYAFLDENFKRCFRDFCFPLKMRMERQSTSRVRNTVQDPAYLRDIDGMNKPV
Test [3] deals with Delta-type opioid receptor (Homo sapiens) (UniProt P41143). Description: Antagonist activity at human cloned delta opioid receptor expressed in CHO cells assessed as inhibition of DPDPE-stimulated [35S]GTPgammaS binding. It is filed as functional, cell-based.
Chain of Delta-type opioid receptor (Homo sapiens) (P41143 whole entry): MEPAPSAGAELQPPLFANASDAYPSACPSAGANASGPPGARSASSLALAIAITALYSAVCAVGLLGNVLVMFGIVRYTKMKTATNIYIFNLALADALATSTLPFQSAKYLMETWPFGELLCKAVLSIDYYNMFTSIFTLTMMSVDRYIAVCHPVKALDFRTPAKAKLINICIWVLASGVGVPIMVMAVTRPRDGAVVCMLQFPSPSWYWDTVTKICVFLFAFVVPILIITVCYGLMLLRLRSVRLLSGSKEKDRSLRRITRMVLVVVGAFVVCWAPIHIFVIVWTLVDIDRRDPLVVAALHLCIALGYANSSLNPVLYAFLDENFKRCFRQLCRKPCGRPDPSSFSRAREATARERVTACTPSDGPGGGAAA
Test [4] concerns the target Mu-type opioid receptor (Homo sapiens) (UniProt P35372). Description: Antagonist activity at human cloned mu opioid receptor expressed in CHO cells assessed as inhibition of DAMGO-stimulated [35S]GTPgammaS binding. It is filed as functional, cell-based.
Test [5] is filed under the species Homo sapiens. Put plainly: Ratio of Ke for human cloned mu opioid receptor to Ke for human cloned kappa opioid receptor.
Test [6] deals with Kappa-type opioid receptor (Homo sapiens) (UniProt P41145). Put plainly: Ratio of compound Ke to JDTic Ke for human cloned kappa opioid receptor expressed in CHO cells. It is filed as cell-based.
Test [7] addresses Mu-type opioid receptor (Homo sapiens) (UniProt P35372). Description: Ratio of JDTic Ke to compound Ke for human cloned mu opioid receptor expressed in CHO cells. It is filed as cell-based.

The structures appear in SMILES notation. A value given as a limit tells only on which side of the number the result lay.

Chain of Mu-type opioid receptor (Homo sapiens) (P35372 whole entry): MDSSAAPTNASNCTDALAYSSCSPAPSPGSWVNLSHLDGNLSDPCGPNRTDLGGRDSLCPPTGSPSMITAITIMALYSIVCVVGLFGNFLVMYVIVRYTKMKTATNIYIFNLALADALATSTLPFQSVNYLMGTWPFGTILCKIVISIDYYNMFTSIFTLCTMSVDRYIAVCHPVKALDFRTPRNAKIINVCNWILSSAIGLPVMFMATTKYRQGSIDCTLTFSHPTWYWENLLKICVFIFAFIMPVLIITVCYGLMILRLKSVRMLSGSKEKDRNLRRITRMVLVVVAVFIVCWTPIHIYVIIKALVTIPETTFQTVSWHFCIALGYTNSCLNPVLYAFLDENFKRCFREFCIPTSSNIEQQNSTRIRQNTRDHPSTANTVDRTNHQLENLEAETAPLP

As to `COc1cccc([C@]2(C)CCN(C[C@@H](NC(=O)[C@H]3Cc4ccc(O)cc4CN3C)C(C)C)C[C@@H]2C)c1`, the Ratio Ke stood at 535 in test [1] and 204 in test [5]. Moreover, the Ke stood at 4.3 nM in test [2], 2300 nM in test [3] and 880 nM in test [4].

Regarding `COc1ccc2c(c1)CN[C@@H](C(=O)N[C@H](CN1CC[C@@](C)(c3cccc(O)c3)[C@@H](C)C1)C(C)C)C2`, the results for the Ratio Ke in test [1], in test [6] and in test [5] were 1970, 3 and 857, respectively.

Take `CC[C@H](C)[C@@H](CN1CC[C@@](C)(c2cccc(OC)c2)[C@@H](C)C1)NC(=O)[C@H]1Cc2ccc(O)cc2CN1`: the values for the Ke in test [2] and in test [4] were 0.96 nM and 5.1 nM, respectively.

Consider `CC[C@H](C)[C@@H](CN1CC[C@@](C)(c2cccc(O)c2)[C@@H](C)C1)NC(=O)[C@H]1Cc2ccc(O)cc2CN1`, for which the values for the Ratio Ke in test [1], in test [7] and in test [5] were 800, 8 and 100, respectively.

Take `CC[C@H](C)[C@@H](CN1CC[C@@](C)(c2cccc(OC)c2)[C@@H](C)C1)NC(=O)[C@H]1Cc2ccc(O)cc2CN1C`: the Ke in test [2] was 2.03 nM; in test [3], greater than 10000 nM; in test [4], 360 nM. In test [5], the Ratio Ke amounted to 180.

With `CC(C)[C@@H](CN1CC[C@@](C)(c2cccc(O)c2)[C@@H](C)C1)NC(=O)[C@@]1(C)Cc2ccc(O)cc2CN1`, the Ratio Ke amounted to 28500 in test [1] and 120 in test [5]. Moreover, the results for the Ke in test [2], in test [3] and in test [4] were 0.03 nM, 854 nM and 3.6 nM, respectively.

For `CC[C@H](C)[C@@H](CN1CC[C@@](C)(c2cccc(OC)c2)[C@@H](C)C1)NC(=O)[C@@]1(C)Cc2ccc(O)cc2CN1`, the Ke in test [2] was found to be 0.52 nM; in test [3], 2100 nM.

Regarding `COc1ccc2c(c1)CN(C)[C@@](C)(C(=O)N[C@H](CN1CC[C@@](C)(c3cccc(O)c3)[C@@H](C)C1)C(C)C)C2`, the Ke turned out to be 2.2 nM in test [2] and 7 nM in test [4].

On to `CC[C@H](C)[C@@H](CN1CC[C@@](C)(c2cccc(O)c2)[C@@H](C)C1)NC(=O)[C@@]1(C)Cc2ccc(O)cc2CN1`, for which the Ke in test [2] came to 0.11 nM; in test [4], 8.7 nM.

As to `CC(C)[C@@H](CN1CC[C@@](C)(c2cccc(O)c2)[C@@H](C)C1)NC(=O)[C@H]1Cc2ccc(O)cc2CN1C`, the Ratio Ke in test [1] was found to be 3070; in test [5] it was 1310. Moreover, the results for the Ke in test [2], in test [3] and in test [4] were 0.16 nM, 491 nM and 210 nM, respectively.

Regarding `COc1cccc([C@]2(C)CCN(C[C@@H](NC(=O)[C@@]3(C)Cc4ccc(O)cc4CN3)C(C)C)C[C@@H]2C)c1`, the Ke turned out to be 0.26 nM in test [2] and 2200 nM in test [3].

As for `COc1ccc2c(c1)CN[C@@](C)(C(=O)N[C@H](CN1CC[C@@](C)(c3cccc(O)c3)[C@@H](C)C1)C(C)C)C2`, the Ratio Ke in test [1] is 40; in test [5], 4. Further, the Ke in test [2] worked out at 0.93 nM; in test [3] it was 36.8 nM; in test [4], 3.8 nM.

As to `COc1cccc([C@]2(C)CCN(C[C@@H](NC(=O)[C@H]3Cc4ccc(O)cc4CN3)C(C)C)C[C@@H]2C)c1`, the Ratio Ke in test [1] was determined as 573; in test [6] it was 2; in test [5], 649. Moreover, the Ke turned out to be 0.037 nM in test [2], 21.2 nM in test [3] and 24 nM in test [4].

For `CC[C@H](C)[C@@H](CN1CC[C@@](C)(c2cccc(O)c2)[C@@H](C)C1)NC(=O)[C@@]1(C)Cc2ccc(OC)cc2CN1`, the Ratio Ke in test [1] and in test [5] was 5 each time. Also, the Ke in test [2] was 3.5 nM; in test [3] it was 18.7 nM; in test [4], 17.5 nM.

On to `CC(C)[C@@H](CN1CC[C@@](C)(c2cccc(O)c2)[C@@H](C)C1)NC(=O)[C@H]1Cc2ccc(O)cc2CN1`, for which the Ratio Ke in test [1] worked out at 3830; in test [5], 1260.

Turning to `COc1cccc([C@]2(C)CCN(C[C@@H](NC(=O)[C@@]3(C)Cc4ccc(OC)cc4CN3)C(C)C)C[C@@H]2C)c1`, the Ke in test [2] was 15.2 nM; in test [3] it was greater than 10000 nM.

As for `CC[C@H](C)[C@@H](CN1CC[C@@](C)(c2cccc(O)c2)[C@@H](C)C1)NC(=O)[C@H]1Cc2ccc(O)cc2CN1C`, the Ratio Ke in test [1] was 1200; in test [5], 66. In addition, the Ke in test [2] was 0.11 nM; in test [3], 132 nM; in test [4] it was 7.2 nM.
